Data as given in patent US6462037B1, “1,4-benzodiazepin-2-ones useful as HIV reverse transcriptase inhibitors” (Bristol-Myers Squibb Pharma Company, priority 1999, dated 2002).

Row | Structure (SMILES) | melting point [°C]
1 | CCCN1CC(=O)Nc2ccc(Cl)cc2C1C(F)(F)F (centres unmarked) [compound 106, 7-Chloro-4-propyl-1,5-dihydro-5-(trifluoromethyl)-1,4-benzodiazepin-2-one] | 123 to 124
2 | O=C1CN(CCc2cccc(Cl)c2)C(C(F)(F)F)c2cc(Cl)ccc2N1 (centres unmarked) [compound 141, 7-Chloro-4-(2-(3-chlorophenyl)ethyl)-1,5-dihydro-5-(trifluoromethyl)-1,4-benzodiazepin-2-one] | 208 to 209
3 | N#Cc1ccccc1CN1CC(=O)Nc2ccc(Cl)cc2C1C(F)(F)F (centres unmarked) [compound 116, 7-Chloro-4-(2-cyanobenzyl)-1,5-dihydro-5-(trifluoromethyl)-1,4-benzodiazepin-2-one] | 184 to 185
4 | C#CCN1CC(=O)Nc2ccc(Cl)cc2C1C(F)(F)F (centres unmarked) [compound 165, 7-Chloro-4-(2-propynyl)-1,5-dihydro-5-(trifluoromethyl)-1,4-benzodiazepin-2-one] | 181 to 182
5 | CCCCC1(C(F)(F)F)N=CC(=O)Nc2ccc(Cl)cc21 (centres unmarked) [compound 128, 7-Chloro-5-butyl-1,5-dihydro-5-(trifluoromethyl)-1,4-benzodiazepin-2-one] | 121 to 123
6 | O=C1CN(Cc2cccc(Cl)n2)C(C(F)(F)F)c2cc(Cl)ccc2N1 (centres unmarked) [compound 105, 7-Chloro-4-(6-chloro-2-pyridylmethyl)-1,5-dihydro-5-(trifluoromethyl)-1,4-benzodiazepin-2-one] | 184 to 186
7 | O=C1CN(C(=O)c2ccccc2)C(C(F)(F)F)c2cc(Cl)ccc2N1 (centres unmarked) [compound 139, 7-Chloro-4-benzoyl-1,5-dihydro-5-(trifluoromethyl)-1,4-benzodiazepin-2-one] | 257 to 258
8 | O=C1CN(Cc2ccccc2F)C(C(F)(F)F)c2cc(Cl)ccc2N1 (centres unmarked) [compound 137, 7-Chloro-4-(2-fluorobenzyl)-1,5-dihydro-5-(trifluoromethyl)-1,4-benzodiazepin-2-one] | 170 to 171
9 | O=C1C=NC(/C=C/C2CC2)(C(F)(F)F)c2cc(Cl)ccc2N1 (centres unmarked) [compound 191, 7-Chloro-5-(2-cyclopropyl-E-ethenyl)-1,5-dihydro-5-(trifluoromethyl)-1,4-benzodiazepin-2-one] | 150 to 153
10 | O=C1CN(Cc2ccco2)C(C(F)(F)F)c2cc(Cl)ccc2N1 (centres unmarked) [compound 124, 7-Chloro-4-(2-furanylmethyl)-1,5-dihydro-5-(trifluoromethyl)-1,4-benzodiazepin-2-one] | 143 to 145
11 | O=C1C=NC(CCC(F)(F)F)(C(F)(F)F)c2c(ccc(F)c2F)N1 (centres unmarked) [compound 201, 6,7-Difluoro-5-(3,3,3-trifluoropropyl)-1,5-dihydro-5-(trifluoromethyl)-1,4-benzodiazepin-2-one] | 160 to 163
12 | CCCCCN1CC(=O)Nc2ccc(Cl)cc2C1C(F)(F)F (centres unmarked) [compound 111, 7-Chloro-4-pentyl-1,5-dihydro-5-(trifluoromethyl)-1,4-benzodiazepin-2-one] | 94 to 96
13 | O=C1CN(Cc2c(F)cccc2Cl)C(C(F)(F)F)c2cc(Cl)ccc2N1 (centres unmarked) [compound 115, 7-Chloro-4-(2-chloro-6-fluorobenzyl)-1,5-dihydro-5-(trifluoromethyl)-1,4-benzodiazepin-2-one] | 171 to 172
14 | O=C1CN(Cc2ccccc2Br)C(C(F)(F)F)c2cc(Cl)ccc2N1 (centres unmarked) [compound 114, 7-Chloro-4-(2-bromobenzyl)-1,5-dihydro-5-(trifluoromethyl)-1,4-benzodiazepin-2-one] | 161 to 162
15 | CC#CCN1CC(=O)Nc2ccc(Cl)cc2C1C(F)(F)F (centres unmarked) [compound 166, 7-Chloro-4-(2-butynyl)-1,5-dihydro-5-(trifluoromethyl)-1,4-benzodiazepin-2-one] | 174 to 175
16 | N#Cc1cccc(CN2CC(=O)Nc3ccc(Cl)cc3C2C(F)(F)F)c1 (centres unmarked) [compound 120, 7-Chloro-4-(3-cyanobenzyl)-1,5-dihydro-5-(trifluoromethyl)-1,4-benzodiazepin-2-one] | 241 to 242
17 | Cc1cccc(F)c1CN1CC(=O)Nc2ccc(Cl)cc2C1C(F)(F)F (centres unmarked) [compound 180, 7-Chloro-4-(2-fluoro-6-methylbenzyl)-1,5-dihydro-5-(trifluoromethyl)-1,4-benzodiazepin-2-one] | 196 to 197
18 | O=C1C=NC(C#Cc2cccs2)(C(F)(F)F)c2cc(Cl)ccc2N1 (centres unmarked) [compound 135, 7-Chloro-5-(2-thienylethynyl)-1,5-dihydro-5-(trifluoromethyl)-1,4-benzodiazepin-2-one] | 196 to 198
19 | CCCCCCC1(C(F)(F)F)N=CC(=O)Nc2ccc(Cl)cc21 (centres unmarked) [compound 192, 7-Chloro-5-hexyl-1,5-dihydro-5-(trifluoromethyl)-1,4-benzodiazepin-2-one] | 115 to 120
20 | O=C1CN(CC#Cc2ccccc2)C(C(F)(F)F)c2cc(Cl)ccc2N1 (centres unmarked) [compound 154, 7-Chloro-4-(3-phenyl-2-propynyl)-1,5-dihydro-5-(trifluoromethyl)-1,4-benzodiazepin-2-one] | 138 to 139
21 | O=C1CN(Cc2cc(F)ccc2F)C(C(F)(F)F)c2cc(Cl)ccc2N1 (centres unmarked) [compound 148, 7-Chloro-4-(2,5-difluorobenzyl)-1,5-dihydro-5-(trifluoromethyl)-1,4-benzodiazepin-2-one] | 134 to 135
22 | Cc1ccccc1CN1CC(=O)Nc2ccc(Cl)cc2C1C(F)(F)F (centres unmarked) [compound 113, 7-Chloro-4-(2-methylbenzyl)-1,5-dihydro-5-(trifluoromethyl)-1,4-benzodiazepin-2-one] | 197 to 198
23 | CC(C)CCN1CC(=O)Nc2ccc(Cl)cc2C1C(F)(F)F (centres unmarked) [compound 151, 7-Chloro-4-(3-methylbutyl)-1,5-dihydro-5-(trifluoromethyl)-1,4-benzodiazepin-2-one] | 68 to 70
24 | CCCCCCN1CC(=O)Nc2ccc(Cl)cc2C1C(F)(F)F (centres unmarked) [compound 107, 7-Chloro-4-hexyl-1,5-dihydro-5-(trifluoromethyl)-1,4-benzodiazepin-2-one] | 87 to 88
25 | O=C1C=NC(C#CC2CC2)(C(F)(F)F)c2c(ccc(F)c2F)N1 (centres unmarked) [compound 195, 6,7-Difluoro-5-(2-cyclopropylethynyl)-1,5-dihydro-5-(trifluoromethyl)-1,4-benzodiazepin-2-one] | 185 to 187
26 | COc1cccc(F)c1CN1CC(=O)Nc2ccc(Cl)cc2C1C(F)(F)F (centres unmarked) [compound 146, 7-Chloro-4-(2-methoxy-6-fluorobenzyl)-1,5-dihydro-5-(trifluoromethyl)-1,4-benzodiazepin-2-one] | 107 to 108
27 | COc1cccnc1CN1CC(=O)Nc2ccc(Cl)cc2C1C(F)(F)F (centres unmarked) [compound 126, 7-Chloro-4-(3-methoxy-2-pyridylmethyl)-1,5-dihydro-5-(trifluoromethyl)-1,4-benzodiazepin-2-one] | 146 to 148
28 | CCCCC1(C(F)(F)F)c2cc(Cl)ccc2NC(=O)CN1c1ccccc1 (centres unmarked) [compound 159, 7-Chloro-4-phenyl-5-butyl-1,5-dihydro-5-(trifluoromethyl)-1,4-benzodiazepin-2-one] | 177 to 178
29 | COc1ccc(OC)c(CN2CC(=O)Nc3ccc(Cl)cc3C2C(F)(F)F)c1 (centres unmarked) [compound 144, 7-Chloro-4-(2,5-dimethoxybenzyl)-1,5-dihydro-5-(trifluoromethyl)-1,4-benzodiazepin-2-one] | 182 to 183
